Laboratory results as given in US20100203110A1, “Therapeutics for Cancer Using 3-Bromopyruvate and Other Selective Inhibitors of ATP Production” (The Johns Hopkins University, priority 2006, published 2010).

Target: T1, Type II hexokinase (Homo sapiens, UniProt P52789)
T1 construct: The cells were harvested, total protein extracted, purified and used to run a western blot; endogenous in cells; host or cells: Hep G2
T1 sequence (P52789 1-917): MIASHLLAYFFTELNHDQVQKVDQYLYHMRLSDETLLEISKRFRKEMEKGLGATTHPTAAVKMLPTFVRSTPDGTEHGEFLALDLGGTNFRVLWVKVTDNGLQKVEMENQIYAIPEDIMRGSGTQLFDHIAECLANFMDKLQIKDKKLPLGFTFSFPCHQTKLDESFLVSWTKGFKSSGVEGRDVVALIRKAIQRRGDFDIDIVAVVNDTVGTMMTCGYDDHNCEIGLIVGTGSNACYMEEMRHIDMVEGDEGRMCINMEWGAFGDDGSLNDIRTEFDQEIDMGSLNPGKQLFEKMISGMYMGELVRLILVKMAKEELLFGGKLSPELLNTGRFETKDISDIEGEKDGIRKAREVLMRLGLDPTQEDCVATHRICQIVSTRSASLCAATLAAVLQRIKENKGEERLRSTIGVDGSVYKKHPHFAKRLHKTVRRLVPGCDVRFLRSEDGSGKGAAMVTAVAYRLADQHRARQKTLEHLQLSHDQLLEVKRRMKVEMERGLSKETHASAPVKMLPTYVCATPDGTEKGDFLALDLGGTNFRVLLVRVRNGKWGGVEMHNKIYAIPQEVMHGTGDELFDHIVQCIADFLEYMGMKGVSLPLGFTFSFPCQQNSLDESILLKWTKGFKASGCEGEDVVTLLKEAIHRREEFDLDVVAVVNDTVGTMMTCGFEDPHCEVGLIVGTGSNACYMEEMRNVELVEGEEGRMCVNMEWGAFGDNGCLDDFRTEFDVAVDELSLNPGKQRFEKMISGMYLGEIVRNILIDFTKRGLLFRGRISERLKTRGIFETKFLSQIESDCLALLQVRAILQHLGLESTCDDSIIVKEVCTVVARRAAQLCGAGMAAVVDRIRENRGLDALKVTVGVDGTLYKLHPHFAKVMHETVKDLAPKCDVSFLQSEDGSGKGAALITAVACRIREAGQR
Assay: Binding of 14C-labeled 3-bromopyruvate in Hep G2 cells (western blot / autoradiograph)
Conditions: 1 hour in HBSS
Experimental: In a further study, the human hepatocellular carcinoma cell line (HCC), Hep G2, was treated with ^14C-labeled 3-bromopyruvate for a period of 1 hour in HBSS. The cells were harvested, total protein extracted, purified and used to run a western blot. They were then transferred onto a membrane, probed with a Type II hexokinase specific antibody and the antibody binding signal was captured on film through Chemiluminescent detection system (western blotting). The corresponding gel was also separately exposed to an autoradiograph.

SMILES: O=C(O)C(=O)CBr [3-bromopyruvate]
- binding to Type II hexokinase: directly binds
